Data set [1] is described as follows: Writhing Test on the mouse (analgesic activity). In kind it is in vivo. Particulars: po. From the text: (§1) As already mentioned earlier, the compounds of formula I and their pharmaceutically acceptable acid addition salts have valuable pharmacodynamic properties. In particular, they have interesting analgesic, anti-depressant and acute inflammation-inhibiting properties. […] In the following Table there are given the results determined in these tests for some representative members of the class of compound defined by general formula I. Moreover, the Table contains data concerning the acute toxicity of these compounds (LD50 after single oral administration to mice).
In general terms: An intraperitoneal irritant provokes the stretching counted in writhing tests.

In another data set the test system is serotonin-uptake. In words: Serotonin-uptake Test (antidepressant activity; M. J. Kuhar et al.). In kind it is biochemical.
Text: as §1

A short description of data set [2]: Acute toxicity, LD50 after single oral administration to mice. Particulars: mouse, in vivo.
Text: as §1

Structures can show the parent of a compound that is named as a salt.

`CN(C)C[C@@H](c1ccc(Cl)cc1)[C@@H]1CCCCC1=O` (relative stereo) [rac-(2S*)-2-/(R*)-4-chloro-α-[(dimethylamino)methyl]benzyl/cyclohexanone hydrochloride] returned a median effective dose (ED50) in data set [1] of 22 mg/kg. In the data set on serotonin-uptake, this compound came in with a 50% inhibitory concentration (IC50) of 240 nM. In addition, in data set [2], the LD50 lay in the range of 156 to 312 mg/kg.
The corresponding values for `COc1ccc([C@H](CN(C)C)[C@@H]2CCCC[C@@H]2O)cc1` (relative stereo) [rac-(1S*)-cis-2-/(R*)-4-methoxy-α-[(dimethylamino)methyl]benzyl/cyclohexanol hydrochloride] are 23 mg/kg, 120 nM and 250 to 500 mg/kg.
For `CN(C)C[C@@H](c1ccc(O)cc1)[C@@H]1CCCC[C@@H]1O` (relative stereo) [rac-(1S*)-cis-2-/(R*)-α-[(dimethylamino)methyl]-4-hydroxybenzyl/cyclohexanol] the same measures were 8.4 mg/kg, 180 nM and 500 to 1000 mg/kg.
The corresponding values for `CN(C)C[C@H](c1ccc(Cl)cc1)[C@H]1CCCC[C@H]1O` [(-)-(1R)-cis-2-/(S)-4-chloro-α-[(dimethylamino)methyl]benzyl/cyclohexanol hydrochloride] are 19 mg/kg, 55 nM and 125 to 250 mg/kg.
In data set [1], `COc1ccc([C@H](CN(C)C)[C@@H]2CCCC[C@@H]2O)cc1OC` (relative stereo) [rac-(1S*)-cis-2-/(R*)-α-[(dimethylamino)methyl]-3,4-dimethoxybenzyl/cyclohexanol hydrochloride] displayed an ED50 of 10 mg/kg. In the data set on serotonin-uptake, this compound had a concentration for half-maximal inhibition (IC50) of 100 nM. Also, the LD50 in data set [2] lay within 500 to 1000 mg/kg.
The corresponding values for `CN(C)C[C@@H](c1ccc(Cl)cc1)[C@@H]1CCCC[C@@H]1O` [(+)-(1S)-cis-2-/(R)-4-chloro-α-[(dimethylamino)methyl]benzyl/cyclohexanol hydrochloride] are 14 mg/kg, 110 nM and 125 to 250 mg/kg.
The corresponding values for `CN(C)C[C@@H](c1ccc(Cl)cc1)[C@@H]1CCCC[C@@H]1O` (relative stereo) [rac-(1S*)-cis-2-/(R*)-4-chloro-α-[(dimethylamino)methyl]benzyl/cyclohexanol hydrochloride] are 18 mg/kg, 88 nM and 312 to 625 mg/kg.
For `CN(C)C[C@@H](c1ccc(Cl)c(Cl)c1)[C@@H]1CCCC[C@@H]1O` (relative stereo) [rac-(1S*)-cis-2-/(R*)-3,4-dichloro-α-[(dimethylamino)methyl]benzyl/cyclohexanol hydrochloride] the same measures were 9.7 mg/kg, 21 nM and 62.6 to 125 mg/kg.

In general, ED50 refers to the midpoint of the dose-response relation. Usually IC50 stands for the concentration needed to halve the response being measured. As usually defined, the LD50 is the dose expected to kill half of the subjects tested. Lower therefore signals greater toxicity.

Values taken from US4820734A, “Phenethylamine derivatives” (Hoffmann-La Roche Inc., priority 1983, dated 1989).
